Assay results taken from ChEMBL document CHEMBL5050861 (2021).
In brackets after ≈: the same amount, converted by molar mass.

Key:
[1] = Inhibition of recombinant mouse GALK1 using ATP as substrate incubated for 1 hr and measured by Kinase-Glo assay
Galactokinase = Galactokinase (Homo sapiens, UniProt P51570); test: Inhibition of recombinant human GALK1 using ATP as substrate incubated for 1 hr and measured by Kinase-Glo assay
[2] = Stability of compound in rat microsomes assessed as half-life; assay type: ADME, Microsome
[3] = Permeability of compound by PAMPA assay; assay type: ADME; conditions: read-out: permeability
[4] = Kinetic aqueous solubility of the compound; assay type: physicochemical; conditions: buffer; read-out: Kinetic_solubility
[5] = Binding affinity towards human GALK1 K252A/E253A double mutant measured by surface plasmon resonance (SPR) assay
[6] = Inhibition of human GALK1 K252A/E253A double mutant
Homo sapiens = organism: Homo sapiens; test: Inhibition of human GALK1 K252A/E253A double mutant relative to control; set-up: concentration or dose not given beside the values; conditions: concentration not given here
Fibroblast = test: Inhibition of human GALK1 K252A/E253A double mutant in human skin fibroblasts at 10 uM assessed as reduction in Gal-1P accumulation; assay type: cell-based
[7] = Stability of compound in rat liver microsomes assessed as half-life; assay type: ADME, Microsome
[8] = Stability of compound in mouse liver microsomes assessed as half-life; assay type: ADME, Microsome
[9] = Stability of compound in human liver microsomes assessed as half-life; assay type: ADME, Microsome

Galactokinase, sequence (P51570 whole entry): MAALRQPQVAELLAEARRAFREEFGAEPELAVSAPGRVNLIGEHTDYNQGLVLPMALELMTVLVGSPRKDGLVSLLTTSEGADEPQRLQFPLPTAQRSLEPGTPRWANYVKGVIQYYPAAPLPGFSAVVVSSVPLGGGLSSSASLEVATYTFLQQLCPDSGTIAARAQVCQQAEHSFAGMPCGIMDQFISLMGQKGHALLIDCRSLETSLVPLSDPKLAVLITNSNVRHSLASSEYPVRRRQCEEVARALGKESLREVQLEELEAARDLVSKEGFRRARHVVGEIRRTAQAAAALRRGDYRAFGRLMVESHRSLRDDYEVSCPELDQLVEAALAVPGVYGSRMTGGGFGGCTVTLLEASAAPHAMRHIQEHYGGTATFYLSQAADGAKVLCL

Row | SMILES | IC50 ([1]; read-out: IC50) | IC50 (Galactokinase) | half-life [2] | Papp [3] | solubility kinetic [4] | IC50 [1] | other results
1 | CC1=C(C(=O)Nc2ccc(Cl)cc2)C(c2ccccc2Cl)N=C(Nc2nc3ccccc3o2)N1 (stereo not given) | 7.69 µM | Not Active | > 30 min | 2 ×10⁻⁶ cm/s | < 1 µg/mL |  | 
2 | CCn1cc(C(C)NC(=O)C2=C(C)NC(Nc3nc4cccc(N)c4o3)=NC2c2ccc(C)cc2Cl)cn1 (stereo not given) | 1.09 µM |  | 17.9 min | 333 ×10⁻⁶ cm/s | < 1 µg/mL |  | IC50 (Galactokinase; read-out: IC50): 0.05 µM
3 | CC1=C(C(=O)Nc2cc(C(=O)O)ccn2)C(c2ccccc2Cl)N=C(Nc2nc3cccc(N)c3o2)N1 (racemic) | 3.43 µM |  | > 30 min |  | > 76 µg/mL |  | Kd [5]: 0.012 µM; IC50 ([6]; read-out: IC50): 0.077 µM; inhibition (Homo sapiens): 100%
4 | CC1=C(C(=O)N(C)c2ccccc2)C(c2ccccc2Cl)N=C(Nc2nc3ccccc3o2)N1 (stereo not given) |  | Not Active | 1.18 min |  | < 1 µg/mL | Not Active | 
5 | COC(=O)c1ccnc(NC(=O)C2=C(C)NC(Nc3nc4cccc(N)c4o3)=NC2c2ccc(C)cc2Cl)c1 (stereo not given) | 7.08 µM |  | 25.3 min |  | < 1 µg/mL |  | IC50 (Galactokinase; read-out: IC50): 2.24 µM
6 | COC(=O)c1ccccc1NC(=O)C1=C(C)NC(Nc2nc3ccccc3o2)=NC1c1ccccc1Cl (stereo not given) |  | Not Active |  |  |  | Not Active | 
7 | CC1=C(C(=O)Nc2nncs2)C2(Cc3ccccc32)N=C(Nc2nc3ccccc3o2)N1 (stereo not given) |  | Not Active | > 30 min |  | 50.9 µg/mL (≈ 115 µM) | Not Active | 
8 | COC(=O)c1ccnc(NC(=O)C2=C(C)NC(Nc3nc4ccccc4o3)=N[C@@H]2c2ccccc2Cl)c1 |  | Not Active | 25.6 min |  | < 1 µg/mL | Not Active | 
9 | CC1=C(C(=O)Nc2cc(C(=O)O)ccn2)[C@H](c2ccccc2Cl)N=C(Nc2nc3cccc(N)c3o2)N1 | 1.72 µM |  |  |  |  |  | IC50 (Galactokinase; read-out: IC50): 0.086 µM
10 | CC1=C(C(=O)Nc2cc(C(=O)O)ccn2)C(c2ccccc2Cl)N=C(Nc2nc3ccc(F)cc3o2)N1 (racemic) | 4.32 µM |  | > 30 min |  | 46.1 µg/mL (≈ 88.5 µM) |  | Kd [5]: 0.023 µM; IC50 ([6]; read-out: IC50): 0.26 µM; inhibition (Homo sapiens): 100%
11 | CC1=C(C(=O)NCc2ccc(Cl)cc2)C(c2ccccc2Cl)N=C(Nc2nc3ccccc3o2)N1 (stereo not given) |  | Not Active | 11.9 min |  | < 1 µg/mL | Not Active | 
12 | CC1=C(C(=O)NCc2cnn(C)c2)C(c2ccc(C)cc2Cl)N=C(Nc2nc3ccc(F)c(N)c3o2)N1 (stereo not given) | 0.69 µM |  | 17.1 min |  | 1.27 µg/mL (≈ 2.43 µM) |  | IC50 ([6]; read-out: IC50): 0.014 µM; inhibition (Fibroblast): 100%; half-life [7]: 16 min; half-life [8]: 13 min; t1/2 [9]: 47 min
13 | CC1=C(C(=O)Nc2cccc(Br)c2)C(c2ccccc2Cl)N=C(Nc2nc3ccccc3o2)N1 (stereo not given) |  | Not Active | > 30 min | < 1.8 ×10⁻⁶ cm/s | < 1 µg/mL | Not Active | 
14 | CC1=C(C(=O)Nc2cc(C(=O)O)ccn2)C(c2ccccc2Cl)N=C(Nc2nc3cccc(OC(F)(F)F)c3o2)N1 (stereo not given) |  | Not Active | > 30 min | < 10 ×10⁻⁶ cm/s | 47.8 µg/mL (≈ 81.4 µM) | Not Active | IC50 ([6]; read-out: IC50): > 15 µM; inhibition (Homo sapiens): 88%
15 | COc1ccc2oc(NC3=NC(c4ccccc4Cl)C(C(=O)Nc4nnc(-c5cccnc5)s4)=C(C)N3)nc2c1 (stereo not given) |  | Not Active | > 30 min | < 19.1 ×10⁻⁶ cm/s | < 1 µg/mL | Not Active | 
16 | CC1=C(C(=O)Nc2nnc(-c3cccnc3)s2)C(c2ccccc2Cl)N=C(Nc2nc3ccc(C)cc3o2)N1 (stereo not given) |  | Not Active | > 30 min | < 2.9 ×10⁻⁶ cm/s | < 1 µg/mL | Not Active | 
17 | CCOC(=O)C1=C(C(C)C)NC(Nc2nc3ccccc3o2)=NC1c1ccccc1Cl (stereo not given) |  | Not Active | 5.75 min |  | < 1 µg/mL | Not Active | 
18 | CC1=C(C(=O)Nc2cccc(Cl)c2)C(c2ccccc2Cl)N=C(Nc2nc3ccccc3o2)N1 (stereo not given) |  | Not Active | > 30 min | < 9.2 ×10⁻⁶ cm/s | < 1 µg/mL | Not Active | 
19 | CC1=C(C(=O)NCc2ccccc2Cl)C(c2ccccc2Cl)N=C(Nc2nc3ccccc3o2)N1 (stereo not given) |  | Not Active | 4.22 min |  | < 1 µg/mL | Not Active | 
20 | CCOC(=O)C1=C(C)NC(Nc2nc3ccccc3o2)=NC1c1ccccc1Cl (stereo not given) | 13.7 µM | Not Active | 19.3 min |  | < 1 µg/mL |  | 
21 | CCOC(=O)c1ccc(NC(=O)C2=C(C)NC(Nc3nc4ccccc4o3)=NC2c2ccccc2Cl)cc1 (stereo not given) |  |  | > 30 min | 8.8 ×10⁻⁶ cm/s | < 1 µg/mL |  | IC50 (Galactokinase; read-out: IC50): 3.85 µM
22 | CC1=C(C(=O)NCc2cn(C)cn2)[C@@H](c2ccccc2Cl)N=C(Nc2nc3ccccc3o2)N1 |  | Not Active | 8.73 min |  | 40.5 µg/mL (≈ 85.1 µM) | Not Active | 
23 | CCn1cc(CNC(=O)C2=C(C)NC(Nc3nc4ccc(F)c(N)c4o3)=NC2c2ccc(C)cc2Cl)cn1 (racemic) | 0.61 µM |  | 14.1 min |  | < 1 µg/mL |  | IC50 ([6]; read-out: IC50): 0.022 µM; inhibition (Fibroblast): 70%
24 | CC1=C(C(=O)NCc2nc3ccccc3n2C)C(c2ccccc2Cl)N=C(Nc2nc3ccccc3o2)N1 (stereo not given) | 13.7 µM |  | 4.52 min | < 10 ×10⁻⁶ cm/s | < 1 µg/mL |  | IC50 [6]: Not Active; inhibition (Homo sapiens): 48%
25 | COC(=O)C1=C(C(F)(F)F)NC(Nc2nc3ccccc3o2)=NC1c1ccccc1Cl (stereo not given) |  | Not Active | 10.5 min |  | 2.65 µg/mL (≈ 5.88 µM) | Not Active | 
26 | COCC1=C(C(=O)Nc2nncs2)C(c2ccccc2Cl)N=C(Nc2nc3ccccc3o2)N1 (stereo not given) | 19.3 µM |  | > 30 min |  | < 1 µg/mL |  | IC50 (Galactokinase; read-out: IC50): 13.7 µM
